# What was measured:
# RNR (RNR1:RNR2) = RNR (RNR1:RNR2) (Homo sapiens (Human), UniProt P23921+P31350); assay: RNR enzyme activity, rapid-fire mass spectrometry (RFMS) assay; assay type: biochemical; details: [RNR] 50 nM, 1:1 RNR1:RNR2, [CDP] 5 μM, [ATP] 1 mM, 37° C., 45 min
# Procedure: A rapid-fire mass spectrometry (RFMS) assay was used to assess RNR enzyme activity using a 384 well plate and a robotic platform.
# The plate layout included two validated reference compounds (Triapine (3-AP) and Hydroxyurea (HU)): • A dose response in duplicate; top concentration: 5 μM (3-AP) and 250 μM (HU), semi-log • dilutions. • Spike wells in triplicate randomly spotted at four concentrations: • 250 μM, 100 μM, 30 μM and 2 μM for HU • 5 μM, 2 μM, 0.6 μM and 0.04 μM for 3-AP
# First, the multidrop pipes were saturated for 30 minutes with enzymatic solution. Then 30 μL of Stop solution was distributed in column 24. Next, 15 μL of enzyme was distributed in column 1 to 24. Next, a pre-incubation step of 15 minutes at room temperature occurred, followed by distribution of 15 μL of substrate solution (column 1 to 24). Next, the plate was incubated for 45 minutes at 37° C. 30 μL of Stop solution was distributed to columns 1 to 23.
# The final parameters for the enzyme reactions were: • Incubation: 37° C., 45 min • [CDP]: 5 μM; [ATP]: 1 mM; [NADPH]: No • [RNR]final: 50 nM with 1:1 (RNR1:RNR2) ratio • Final volume: 30 μL • Stop solution: 6% HCOOH containing 2 μM of 15
# The compounds were screened at concentrations from 10 nM to 30 μM.
# [1] = tested on: pCHK1 (S345) in Colo320 DM cells; assay: CHK1 cellular activity (phospho-CHK1 AlphaLisa); assay type: cell-based, human; details: Homo sapiens, COLO 320DM, 16 h, compound overnight (approximately 16 hours)
# Procedure: Phospho-CHK1 cellular activity was measured as a marker of replication stress which is a consequence of RNR inhibition.
# Colo320 DM cells (ATCC #CCL-220, derived from human colorectal adenocarcinoma, Dukes' type C) were seeded on a 96-well cell culture treated assay plate at a density of 50,000 cells/well in 200 μL of RPMI-1640 media supplemented with 10% Fetal Bovine Serum and incubated at 37 degrees Celsius overnight. The following day, test compound dilutions were added directly to the plated cells by a Tecan digital dispenser to a final DMSO concentration of <0.5% and incubated at 37 degrees Celsius overnight (approximately 16 hours). The following day all culture media is removed from the cells. 75 μL of 1× AlphaLisa lysis buffer is added to each well and plates are agitated on a shaker for 30 minutes at room temperature. The lysis of cells and detection of pCHK1 (S345) are performed with reagents contained within the AlphaLisa Sure Fire assay kit (Perkin Elmer #ALSU-PCHK1-A) according to the manufacturer's instructions. 10 μL of each lysate was then transferred to a white, 384-well assay plate (Perkin Elmer #6008280). 5 μL of Acceptor mix was then added to each well of lysate in the white, 384-well assay plate and incubated in the dark at room temperature for 60 minutes. 5 μL of Donor mix was then added to each well of the white, 384-well assay plate in subdued light and incubated at room temperature for 60 minutes. Plates are read on an Alpha Technology-compatible plate reader using standard AlphaLisa settings.
# Sequence of RNR (RNR1:RNR2) (P23921 whole entry): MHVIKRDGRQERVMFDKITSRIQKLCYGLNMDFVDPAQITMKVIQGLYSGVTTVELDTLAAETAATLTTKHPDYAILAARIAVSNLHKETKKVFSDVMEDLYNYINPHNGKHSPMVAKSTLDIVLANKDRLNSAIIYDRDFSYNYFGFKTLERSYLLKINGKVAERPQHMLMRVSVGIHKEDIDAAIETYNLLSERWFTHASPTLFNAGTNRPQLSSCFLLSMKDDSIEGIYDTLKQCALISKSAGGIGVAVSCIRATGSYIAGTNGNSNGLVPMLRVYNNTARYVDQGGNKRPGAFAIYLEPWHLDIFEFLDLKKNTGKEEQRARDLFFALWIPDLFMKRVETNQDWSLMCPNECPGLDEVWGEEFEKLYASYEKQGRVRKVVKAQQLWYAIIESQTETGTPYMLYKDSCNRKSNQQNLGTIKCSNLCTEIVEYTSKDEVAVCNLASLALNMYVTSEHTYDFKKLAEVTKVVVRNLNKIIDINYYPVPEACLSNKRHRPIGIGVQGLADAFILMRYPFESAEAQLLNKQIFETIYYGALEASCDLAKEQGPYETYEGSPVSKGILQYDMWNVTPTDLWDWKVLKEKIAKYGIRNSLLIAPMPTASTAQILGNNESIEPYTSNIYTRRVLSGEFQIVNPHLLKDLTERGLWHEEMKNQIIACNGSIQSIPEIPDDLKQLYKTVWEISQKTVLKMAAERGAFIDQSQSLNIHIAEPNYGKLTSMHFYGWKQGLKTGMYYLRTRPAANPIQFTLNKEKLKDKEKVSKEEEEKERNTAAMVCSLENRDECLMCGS
# Sequence of RNR (RNR1:RNR2) (P31350 whole entry): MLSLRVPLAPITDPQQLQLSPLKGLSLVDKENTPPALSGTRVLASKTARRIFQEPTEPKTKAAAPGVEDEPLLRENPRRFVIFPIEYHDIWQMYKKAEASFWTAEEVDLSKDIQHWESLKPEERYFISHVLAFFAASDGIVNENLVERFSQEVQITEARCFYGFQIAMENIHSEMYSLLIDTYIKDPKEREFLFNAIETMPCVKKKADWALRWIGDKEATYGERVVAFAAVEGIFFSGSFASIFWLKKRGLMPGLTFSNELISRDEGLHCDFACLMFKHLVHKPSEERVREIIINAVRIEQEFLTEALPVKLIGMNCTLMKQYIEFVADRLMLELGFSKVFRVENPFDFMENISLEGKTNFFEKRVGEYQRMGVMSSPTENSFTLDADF
IC50 (RNR (RNR1:RNR2)) [µM],IC50 [1] [µM],Structure (SMILES)
≤ 0.1,50 to 100,"Cc1ccc(F)c([C@@H](C)[C@H](NS(=O)(=O)c2ccc(Cl)c3c2OCCC3=O)c2nn[nH]n2)c1C [Example 9, 5-chloro-N-((1S,2R)-2-(6-fluoro-2,3-dimethylphenyl)-1-(2H-tetrazol-5-yl)propyl)-4-oxochromane-8-sulfonamide]"
≤ 0.1,50 to 100,"Cc1ccc(F)c([C@@H](C)[C@H](NS(=O)(=O)c2ccc(Cl)c3c2OCC[C@@H]3O)c2nn[nH]n2)c1C [Example 10, (S)-5-chloro-N-((1S,2R)-2-(6-fluoro-2,3-dimethylphenyl)-1-(2H-tetrazol-5-yl)propyl)-4-hydroxychromane-8-sulfonamide]"
≤ 0.1,50 to 100,"Cc1ccc(F)c([C@@H](C)[C@H](NS(=O)(=O)c2ccc(Cl)c3c2OCC[C@H]3O)c2nn[nH]n2)c1C [Example 11, (R)-5-chloro-N-((1S,2R)-2-(6-fluoro-2,3-dimethylphenyl)-1-(2H-tetrazol-5-yl)propyl)-4-hydroxychromane-8-sulfonamide]"
≤ 0.1,10 to 30,"[2H]C([2H])([2H])[C@@]1(O)CCOc2c(S(=O)(=O)N[C@H](c3nn[nH]n3)[C@H](C)c3c(F)ccc(C)c3C)ccc(Cl)c21 [Example 12, (R)-5-chloro-N-((1S,2R)-2-(6-fluoro-2,3-dimethylphenyl)-1-(2H-tetrazol-5-yl)propyl)-4-hydroxy-4-(methyl-d3)chromane-8-sulfonamide]"
≤ 0.1,50 to 100,"Cc1ccc(F)c([C@@H](C)[C@H](NS(=O)(=O)c2ccc(Cl)cc2CC(=O)O)c2nn[nH]n2)c1C [Example 18, 2-(5-chloro-2-(N-((1S,2R)-2-(6-fluoro-2,3-dimethylphenyl)-1-(2H-tetrazol-5-yl)propyl)sulfamoyl)phenyl)acetic acid]"
0.1 to 1,10 to 30,"Cc1ccc(F)c([C@@H](C)[C@H](NS(=O)(=O)c2ccc(Cl)cc2F)c2nn[nH]n2)c1C [Example 19, 4-chloro-2-fluoro-N-((1S,2R)-2-(6-fluoro-2,3-dimethylphenyl)-1-(2H-tetrazol-5-yl)propyl)benzenesulfonamide]"
0.1 to 1,30 to 50,"CCc1cc(Cl)ccc1S(=O)(=O)N[C@H](c1nn[nH]n1)[C@H](C)c1c(F)ccc(C)c1C [Example 20, 4-chloro-2-ethyl-N-((1S,2R)-2-(6-fluoro-2,3-dimethylphenyl)-1-(2H-tetrazol-5-yl)propyl)benzenesulfonamide]"
0.1 to 1,50 to 100,"Cc1ccc(F)c([C@@H](C)[C@H](NS(=O)(=O)c2ccc(Cl)cc2C(F)(F)F)c2nn[nH]n2)c1C [Example 21, 4-chloro-N-((1S,2R)-2-(6-fluoro-2,3-dimethylphenyl)-1-(2H-tetrazol-5-yl)propyl)-2-(trifluoromethyl)benzenesulfonamide]"
0.1 to 1,30 to 50,"Cc1ccc(F)c([C@@H](C)[C@H](NS(=O)(=O)c2ccc(Cl)cc2CC(=O)N(C)C)c2nn[nH]n2)c1C [Example 22, 2-(5-chloro-2-(N-((1S,2R)-2-(6-fluoro-2,3-dimethylphenyl)-1-(2H-tetrazol-5-yl)propyl)sulfamoyl)phenyl)-N,N-dimethylacetamide]"
0.1 to 1,50 to 100,"Cc1ccc(F)c([C@@H](C)[C@H](NS(=O)(=O)c2ccc(Cl)cc2CC(N)=O)c2nn[nH]n2)c1C [Example 23, 2-(5-chloro-2-(N-((1S,2R)-2-(6-fluoro-2,3-dimethylphenyl)-1-(2H-tetrazol-5-yl)propyl)sulfamoyl)phenyl)acetamide]"
0.1 to 1,10 to 30,"Cc1ccc(F)c([C@@H](C)[C@H](NS(=O)(=O)c2ccc(Cl)cc2CC(=O)N2CCCCC2)c2nn[nH]n2)c1C [Example 24, 4-chloro-N-((1S,2R)-2-(6-fluoro-2,3-dimethylphenyl)-1-(2H-tetrazol-5-yl)propyl)-2-(2-oxo-2-(piperidin-1-yl)ethyl)benzenesulfonamide]"
0.1 to 1,10 to 30,"Cc1cc(Cl)ccc1S(=O)(=O)N[C@H](c1nn[nH]n1)[C@H](C)c1c(F)ccc(C)c1C [Example 25, 4-chloro-N-((1S,2R)-2-(6-fluoro-2,3-dimethylphenyl)-1-(2H-tetrazol-5-yl)propyl)-2-methylbenzenesulfonamide]"
0.1 to 1,50 to 100,"Cc1ccc(F)c([C@@H](C)[C@H](NS(=O)(=O)c2ccc(Cl)cc2CC(=O)N2CCOCC2)c2nn[nH]n2)c1C [Example 26, 4-chloro-N-((1S,2R)-2-(6-fluoro-2,3-dimethylphenyl)-1-(2H-tetrazol-5-yl)propyl)-2-(2-morpholino-2-oxoethyl)benzenesulfonamide]"
≤ 0.1,10 to 30,"Cc1ccc(F)c([C@@H](C)[C@H](NS(=O)(=O)c2ccc(Cl)cc2OC(F)F)c2nn[nH]n2)c1C [Example 27, 4-chloro-2-(difluoromethoxy)-N-((1S,2R)-2-(6-fluoro-2,3-dimethylphenyl)-1-(2H-tetrazol-5-yl)propyl)benzenesulfonamide]"
≤ 0.1,50 to 100,"Cc1ccc(F)c([C@@H](C)[C@H](NS(=O)(=O)c2c(Cl)cc(Cl)c3c2OCCN3C)c2nn[nH]n2)c1C [Example 28, 5,7-dichloro-N-((1S,2R)-2-(6-fluoro-2,3-dimethylphenyl)-1-(2H-tetrazol-5-yl)propyl)-4-methyl-3,4-dihydro-2H-benzo[b][1,4]oxazine-8-sulfonamide]"
≤ 0.1,≤ 10,"Cc1ccc(F)c([C@@H](C)[C@H](NS(=O)(=O)c2ccc(Cl)c3c2OCCN3C)c2nn[nH]n2)c1C [Example 29, 5-chloro-N-((1S,2R)-2-(6-fluoro-2,3-dimethylphenyl)-1-(2H-tetrazol-5-yl)propyl)-4-methyl-3,4-dihydro-2H-benzo[b][1,4]oxazine-8-sulfonamide]"
≤ 0.1,10 to 30,"Cc1ccc(F)c([C@@H](C)[C@H](NS(=O)(=O)c2ccc(Cl)cc2OC(F)(F)F)c2nn[nH]n2)c1C [Example 30, 4-chloro-N-((1S,2R)-2-(6-fluoro-2,3-dimethylphenyl)-1-(2H-tetrazol-5-yl)propyl)-2-(trifluromethoxy)benzenesulfonamdie]"
1 to 5,50 to 100,"Cc1cc(S(=O)(=O)N[C@H](c2nn[nH]n2)[C@H](C)c2c(F)ccc(C)c2C)c(C)cc1Cl [Example 31, 4-chloro-N-((1S,2R)-2-(6-fluoro-2,3-dimethylphenyl)-1-(2H-tetrazol-5-yl)propyl)-2,5-dimethylbenzenesulfonamide]"
0.1 to 1,50 to 100,"Cc1ccc(F)c([C@@H](C)[C@H](NS(=O)(=O)c2ccc(Cl)c(Cl)c2)c2nn[nH]n2)c1C [Example 32, 3,4-dichloro-N-((1S,2R)-2-(6-fluoro-2,3-dimethylphenyl)-1-(2H-tetrazol-5-yl)propyl)benzenesulfonamide]"
0.1 to 1,30 to 50,"Cc1ccc(F)c([C@@H](C)[C@H](NS(=O)(=O)c2ccc(Cl)cc2)c2nn[nH]n2)c1C [Example 33, 4-chloro-N-((1S,2R)-2-(6-fluoro-2,3-dimethylphenyl)-1-(2H-tetrazol-5-yl)propyl)benzenesulfonamide]"
5 to 30,50 to 100,"COc1cc(Cl)ccc1S(=O)(=O)N[C@H](c1nnnn1C)[C@H](C)c1c(F)ccc(C)c1C [Example 34, 4-chloro-N-((1S,2R)-2-(6-fluoro-2,3-dimethylphenyl)-1-(1-methyl-1H-tetrazol-5-yl)propyl)-2-methoxybenzensulfonamide]"
5 to 30,50 to 100,"COc1cc(Cl)ccc1S(=O)(=O)N[C@H](c1nnn(C)n1)[C@H](C)c1c(F)ccc(C)c1C [Example 35, 4-chloro-N-((1S,2R)-2-(6-fluoro-2,3-dimethylphenyl)-1-(2-methyl-2H-tetrazol-5-yl)propyl)-2-methoxybenzensulfonamide]"
1 to 5,50 to 100,"Cc1ccc(F)c([C@@H](C)[C@H](NS(=O)(=O)c2cc(Cl)c(F)cc2F)c2nn[nH]n2)c1C [Example 36, 5-chloro-2,4-difluoro-N-((1S,2R)-2-(6-fluoro-2,3-dimethylphenyl)-1-(2H-tetrazol-5-yl)propyl)benzenesulfonamide]"

# — patent publication US20240158383A1, “RIBONUCLEOTIDE REDUCTASE (RNR) INHIBITORS AND USES THEREOF” (Boundless Bio, Inc., priority 2021, published 2024)
